Molecular target: T1, human GPR120 (Homo sapiens, UniProt Q5NUL3)
T1 construct: Flag (DYKDDDDK) (N); host or cells: HEK293 cells co-expressing Gqi5
T1 sequence (Q5NUL3 1-361): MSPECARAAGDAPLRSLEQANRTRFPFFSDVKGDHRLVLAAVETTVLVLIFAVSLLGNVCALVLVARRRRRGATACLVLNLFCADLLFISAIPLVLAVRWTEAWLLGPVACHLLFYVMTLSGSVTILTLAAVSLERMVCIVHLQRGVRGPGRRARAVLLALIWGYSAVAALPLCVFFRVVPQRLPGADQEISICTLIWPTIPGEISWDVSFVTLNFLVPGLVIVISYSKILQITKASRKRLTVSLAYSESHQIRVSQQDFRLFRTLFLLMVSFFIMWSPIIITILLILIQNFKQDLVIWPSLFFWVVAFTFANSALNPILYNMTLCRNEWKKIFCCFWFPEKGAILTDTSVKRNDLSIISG
Test: Intracellular Ca2+ assay (FLIPR Calcium 4, Flexstation) in human GPR120 stable cell line
Type: cell-based
Conditions: % activity at 2.5 μM compared to the maximal activity of the compound of Example 25 at 2.5 μM; HEK293 cells co-expressing Gqi5
Protocol: Human GPR120 stable cell line was purchased from Multispan Inc (26219 Eden Landing Road, Hayward, Calif. 94545). This GPR120 cell line was generated in HEK293 cells co-expressing Gqi5. In this cell line, the Flag epitope tag (DYKDDDDK) was fused to the amino terminus of human GPR120 protein.
The concentration of intracellular Ca^2+ was measured as described below. Human GPR120 cells were plated in 96 well plates (Poly-D-Lysine coated black/clear Plate, Greiner Bio-One) at 70,000 cells per well and cultured overnight in conditions of 37° C. and 5% CO2. A Ca^2+ assay dye stock solution was prepared by adding 10 mL of assay buffer (HBSS/20 mM HEPES, pH 7.4) to FLIPR Calcium 4 Assay Bulk Kit (Molecular Devices). The 10 mL of Ca^2+ assay dye solution was prepared by further diluting 0.5 mL of Ca^2+ assay dye stock solution with 10 mL of assay buffer. The medium of the cells was removed and immediately 100 μL of the Ca^2+ assay dye solution was dispensed into each well followed by incubation at 37° C. and 5% CO2 for 50 minutes to incorporate the Ca^2+ dye into the cells. The cell plate was then placed in the Flexstation (Molecular Devices) for 20 minutes at 37° C. Compounds were dissolved in 100% DMSO and diluted to desired concentrations with assay buffer and placed in the Flexstation simultaneously with the cell plate for 20 minute incubation at 37° C. prior to reading. Fluorescence intensity was measured immediately following compound addition (25 μL/well) on the Flexstation at an excitation wavelength of 485 nm and an emission wavelength of 525 with 515 nm auto cutoff. The resulting increase in fluorescence intensities corresponds to increases in intracellular Ca^2+ levels.
Compounds were dissolved in 100% DMSO to a concentration of 20 mM to provide stock solutions. To determine activity against human GPR120, compounds were added with human GPR120 stably expressing cells (described above), at eight desired concentrations ranging from 0.00001 to 20 μM, in 96 well plates and fluorescence intensities were measured for 90 seconds with 2-second intervals. An EC50 value (concentration of the GPR120 agonist where 50% of the agonist's maximal activity is observed) was calculated using the changes (Max-Min) of fluorescence intensity.
To determine percent activity for a tested compound, the fluorescence intensity value obtained at a particular concentration were compared to the maximal fluorescence intensity value obtained for reference compound GW9508 (4-[[(3-phenoxyphenyl)methyl]amino]benzene propanoic acid; British Journal of Pharmacology 2006 148, 619-628) or the compound of Example 25. When GW9508 was used as the reference compound, the maximal activity of GW9508 at 6.7 μM was designated as 100% activity. When the compound of Example 25 was used as the reference compound, the maximal activity of the compound of Example 25 at 2.5 μM was designated as 100% activity. Typically, the GW9508 activity reached a maximum at a concentration of approximately 6.7 μM and typically the compound of Example 25 reached a maximum activity at approximately 2.5 μM.

Row | % Activity (Ex. 25 Reference Compound) | Structure (SMILES)
1 | 121.29% | CC(Cc1ccc(OCc2ccc(F)c3c2CC(C)(C)O3)cc1)C(=O)O (stereo not shown) [Example 91, 3-(4-((7-fluoro-2,2-dimethyl-2,3-dihydrobenzofuran-4-yl)methoxy)phenyl)-2-methylpropanoic acid]
2 | 98.45% | CC1(C)Cc2c(COc3ccc4c(c3)CCC4CC(=O)O)ccc(F)c2O1 (stereo not shown) [Example 94, 2-(5-((7-fluoro-2,2-dimethyl-2,3-dihydrobenzofuran-4-yl)methoxy)-2,3-dihydro-1H-inden-1-yl)acetic acid]
3 | 124.82% | CC(Cc1ccc(OCc2c(F)ccc3c2CC(C)(C)O3)cc1)C(=O)O (stereo not shown) [Example 96, 3-(4-((5-fluoro-2,2-dimethyl-2,3-dihydrobenzofuran-4-yl)methoxy)phenyl)-2-methylpropanoic acid]
4 | 101.53% | CC1(C)Cc2c(ccc(F)c2COc2c(F)cc(C3CC3C(=O)O)cc2F)O1 (stereo not shown) [Example 99, 2-(3,5-difluoro-4-((5-fluoro-2,2-dimethyl-2,3-dihydrobenzofuran-4-yl)methoxy)phenyl)cyclopropanecarboxylic acid]
5 | 98.96% | Cc1cc(OCC(=O)O)ccc1OCc1cc(Cl)cc2c1OC(C)(C)C2 [Example 103, 2-(4-((5-chloro-2,2-dimethyl-2,3-dihydrobenzofuran-7-yl)methoxy)-3-methylphenoxy)acetic acid]
6 | 154.51% | CC(CC(=O)O)c1cc(F)c(OCc2cc(Cl)cc3c2OC(C)(C)C3)c(F)c1 (stereo not shown) [Example 106, 3-(4-((5-chloro-2,2-dimethyl-2,3-dihydrobenzofuran-7-yl)methoxy)-3,5-difluorophenyl)butanoic acid]
7 | 143.85% | COc1cc(COc2ccc(CC(C)C(=O)O)cc2)c2c(c1)CC(C)(C)O2 (stereo not shown) [Example 108, 3-(4-((5-methoxy-2,2-dimethyl-2,3-dihydrobenzofuran-7-yl)methoxy)phenyl)-2-methylpropanoic acid]
8 | 72.36% | CC(Cc1cc(F)c(OCc2cc(Cl)cc3c2OC(C)C3(C)C)c(F)c1)C(=O)O (stereo not shown) [Example 109, 3-(4-((5-chloro-2,3,3-trimethyl-2,3-dihydrobenzofuran-7-yl)methoxy)-3,5-difluorophenyl)-2-methylpropanoic acid]
9 | 51.55% | CC(Cc1cc(F)c(OCc2cc(OCc3ccccc3)cc3c2OC(C)(C)C3)c(F)c1)C(=O)O (stereo not shown) [Example 111, 3-(4-((5-(benzyloxy)-2,2-dimethyl-2,3-dihydrobenzofuran-7-yl)methoxy)-3,5-difluorophenyl)-2-methylpropanoic acid]
10 | 115.42% | CC1(C)Cc2cc(Cl)cc(COc3ccc4c(c3)CC(C(=O)O)C4)c2O1 (stereo not shown) [Example 112, 5-((5-chloro-2,2-dimethyl-2,3-dihydrobenzofuran-7-yl)methoxy)-2,3-dihydro-1H-indene-2-carboxylic acid]
11 | 123.58% | CC1(C)Cc2cc(F)cc(COc3ccc4cc(C(=O)O)ccc4c3)c2O1 [Example 114, 6-((5-fluoro-2,2-dimethyl-2,3-dihydrobenzofuran-7-yl)methoxy)-2-naphthoic acid]
12 | 151.78% | CC(C)Oc1cc(OCc2cc(F)cc3c2OC(C)(C)C3)ccc1CCC(=O)O [Example 115, 3-(4-((5-fluoro-2,2-dimethyl-2,3-dihydrobenzofuran-7-yl)methoxy)-2-isopropoxyphenyl)propanoic acid]
13 | 145.6% | CC(C)Oc1cc(OCc2cc(Cl)cc3c2OC(C)(C)C3)ccc1CCC(=O)O [Example 116, 3-(4-((5-chloro-2,2-dimethyl-2,3-dihydrobenzofuran-7-yl)methoxy)-2-isopropoxyphenyl)propanoic acid]
14 | 104.49% | Cc1cc2cc(Cl)cc(COc3ccc(CC(C)C(=O)O)cc3F)c2o1 (stereo not shown) [Example 120, 3-(4-((5-chloro-2-methylbenzofuran-7-yl)methoxy)-3-fluorophenyl)-2-methylpropanoic acid]
15 | 3.58% | CN(C)Cc1cc(OCc2cc(F)cc3c2OC(C)(C)C3)ccc1CCC(=O)O [Example 122, 3-(2-((dimethylamino)methyl)-4-((5-fluoro-2,2-dimethyl-2,3-dihydrobenzofuran-7-yl)methoxy)phenyl)propanoic acid]
16 | 47.01% | CC(=O)Nc1cc(COc2ccc(CC(C)C(=O)O)cc2)c2c(c1)CC(C)(C)O2 (stereo not shown) [Example 123, 3-(4-((5-acetamido-2,2-dimethyl-2,3-dihydrobenzofuran-7-yl)methoxy)phenyl)-2-methylpropanoic acid]
17 | 131.64% | CC(Cc1ccc(OCc2cc(OC(F)(F)F)cc3c2OC(C)(C)C3)cc1)C(=O)O (stereo not shown) [Example 124, 3-(4-((2,2-dimethyl-5-(trifluoromethoxy)-2,3-dihydrobenzofuran-7-yl)methoxy)phenyl)-2-methylpropanoic acid]
18 | 32.57% | Cc1cc2c(OCc3cc(F)cc4c3OC(C)(C)C4)ccc(CCC(=O)O)c2o1 [Example 125, 3-(4-((5-fluoro-2,2-dimethyl-2,3-dihydrobenzofuran-7-yl)methoxy)-2-methylbenzofuran-7-yl)propanoic acid]
19 | 47.02% | CC(=O)NCCOC(=O)C(C)Cc1ccc(OCc2cc(Cl)cc3c2OC(C)(C)C3)c(C(F)(F)F)c1 (stereo not shown) [Example 126, 2-acetamidoethyl 3-(4-((5-chloro-2,2-dimethyl-2,3-dihydrobenzofuran-7-yl)methoxy)-3-(trifluoromethyl)phenyl)-2-methylpropanoate]
20 | 152.93% | CC1(C)Cc2cc(Cl)cc(CNc3ccc(CCC(=O)O)cc3)c2O1 [Example 127]
21 | 103.85% | CC(Cc1ccc(OCc2cc(Cl)cc3c2OC(C)(C)C3O)cc1)C(=O)O (stereo not shown) [Example 130, 3-(4-((5-chloro-3-hydroxy-2,2-dimethyl-2,3-dihydrobenzofuran-7-yl)methoxy)phenyl)-2-methylpropanoic acid]
22 | 103.4% | CC1(C)Cc2cc(F)cc(COc3ccc(CC(=O)O)cc3)c2O1 [Example 133, 2-(4-((5-fluoro-2,2-dimethyl-2,3-dihydrobenzofuran-7-yl)methoxy)phenyl)acetic acid]
23 | 151.44% | CCc1cc(OCc2cc(F)cc3c2OC(C)(C)C3)ccc1CCC(=O)O [Example 134, 3-(2-ethyl-4-((5-fluoro-2,2-dimethyl-2,3-dihydrobenzofuran-7-yl)methoxy)phenyl)propanoic acid]
24 | 140.51% | CC1(C)Cc2cc(F)cc(COc3ccc(CCC(=O)O)c(OC(F)(F)F)c3)c2O1 [Example 136, 3-(4-((5-fluoro-2,2-dimethyl-2,3-dihydrobenzofuran-7-yl)methoxy)-2-(trifluoromethoxy)phenyl)propanoic acid]
25 | 146.18% | CCc1cc(OCc2cccc3c2CC(C)(C)O3)ccc1CCC(=O)O [Example 140, 3-(4-((2,2-dimethyl-2,3-dihydrobenzofuran-4-yl)methoxy)-2-ethylphenyl)propanoic acid]

Same assay, conditions: human GPR120 stably expressing cells, eight concentrations from 0.00001 to 20 μM

Row | EC50 | Structure (SMILES)
26 | 1 to 10 µM | CC(Cc1ccc(OCc2ccc(F)c3c2CC(C)(C)O3)cc1)C(=O)O (stereo not shown) [Example 91, 3-(4-((7-fluoro-2,2-dimethyl-2,3-dihydrobenzofuran-4-yl)methoxy)phenyl)-2-methylpropanoic acid]
27 | 1 to 10 µM | Cc1cc2c(OCc3cc(F)cc4c3OC(C)(C)C4)ccc(CCC(=O)O)c2o1 [Example 125, 3-(4-((5-fluoro-2,2-dimethyl-2,3-dihydrobenzofuran-7-yl)methoxy)-2-methylbenzofuran-7-yl)propanoic acid]
28 | 1 to 10 µM | CC(=O)NCCOC(=O)C(C)Cc1ccc(OCc2cc(Cl)cc3c2OC(C)(C)C3)c(C(F)(F)F)c1 (stereo not shown) [Example 126, 2-acetamidoethyl 3-(4-((5-chloro-2,2-dimethyl-2,3-dihydrobenzofuran-7-yl)methoxy)-3-(trifluoromethyl)phenyl)-2-methylpropanoate]

From patent US8598374B2, “GPR120 receptor agonists and uses thereof” (Metabolex, Inc, priority 2008, dated 2013)
